Data published in article PMC3423084 (Circulation, 2012).

How the values were obtained:
guinea pigs = test: Guinea pig carotid artery FeCl3 injury arterial thrombosis model; format: in vivo; details: clopidogrel 1 mg/kg PO 4 h prior alone, 90 min period, n=5
PAR1 = target: T1, PAR1 (Cavia porcellus, UniProt A0A286XH07); test: Activation of guinea pig platelets; format: cell-based
T1 sequence (A0A286XH07 24-426): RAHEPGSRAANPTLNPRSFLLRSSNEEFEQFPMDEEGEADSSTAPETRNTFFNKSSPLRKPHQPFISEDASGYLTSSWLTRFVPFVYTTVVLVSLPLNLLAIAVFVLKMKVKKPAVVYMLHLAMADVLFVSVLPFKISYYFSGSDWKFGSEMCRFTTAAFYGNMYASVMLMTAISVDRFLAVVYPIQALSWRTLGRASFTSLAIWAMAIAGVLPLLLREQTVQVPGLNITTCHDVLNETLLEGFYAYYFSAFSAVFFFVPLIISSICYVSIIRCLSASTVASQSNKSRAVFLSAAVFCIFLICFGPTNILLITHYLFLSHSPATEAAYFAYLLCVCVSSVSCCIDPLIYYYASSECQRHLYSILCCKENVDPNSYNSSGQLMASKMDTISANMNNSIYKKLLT

[1] = human, ref Kosoglou, 2012 #2596, cited from earlier work

In the case of `COC(=O)[C@H](c1ccccc1Cl)N1CCc2sccc2C1` [clopidogrel], the “Protection against arterial occlusion when used alone” value (guinea pigs) is reported as “non-significant protection”.

Molecule `CC(C)C[C@H](NC(=O)[C@H](CC(C)C)NC(=O)[C@H](Cc1ccccc1)NC(=O)[C@@H](N)CO)C(=O)N[C@@H](CCCN=C(N)N)C(=O)N[C@@H](CC(N)=O)C(=O)O` [SFLLRN] has an EC50 (PAR1) of 2500 nM.

For `CCOC(=O)N[C@@H]1CC[C@@H]2[C@@H](C1)C[C@H]1C(=O)O[C@H](C)[C@H]1[C@H]2/C=C/c1ccc(-c2cccc(F)c2)cn1` [vorapaxar], the “Pharmacodynamic (PD) half life / duration of inhibition of platelet function” value ([1]; single loading dose) is given as “up to 3 weeks” and the Plasma half-life [1] is given as 120 to 264 h.
